Laboratory results as given in ChEMBL document CHEMBL1127127, “Avermectin B1-8,9-oxide: reactivity, bioactivity, and stereochemistry” (1993).

System: Artemia
Test: Tested for bioactivity against Brine Shrimp
Type: functional

Structure (SMILES) | IC100 [ng/mL]
CC[C@H](C)[C@H]1O[C@]2(C=C[C@@H]1C)C[C@@H]1C[C@@H](C/C=C(\C)[C@@H](O[C@@H]3C[C@@H](OC)[C@H](O[C@@H]4C[C@@H](OC)[C@H](O)[C@@H](C)O4)[C@@H](C)O3)[C@@H](C)/C=C/C(Sc3ccccc3)[C@]3(O)COC4[C@H](O)C(C)=C[C@@H](C(=O)O1)[C@@]43O)O2 (stereo not given in full) | >55000
CC[C@H](C)[C@H]1O[C@]2(C=C[C@@H]1C)C[C@@H]1C[C@@H](C/C=C(\C)[C@@H](O[C@@H]3C[C@@H](OC)[C@H](O[C@@H]4C[C@@H](OC)[C@H](O)[C@@H](C)O4)[C@@H](C)O3)[C@@H](C)/C=C/[C@@H]3O[C@]34COC3[C@H](O)C(C)=C[C@@H](C(=O)O1)[C@@]34O)O2 (stereo not given in full) | 650
CC[C@H](C)[C@H]1O[C@]2(C=C[C@@H]1C)C[C@@H]1C[C@@H](C/C=C(\C)[C@@H](O[C@@H]3C[C@@H](OC)[C@H](O[C@@H]4C[C@@H](OC)[C@H](O)[C@@H](C)O4)[C@@H](C)O3)[C@@H](C)/C=C/C(O)[C@]3(O)COC4[C@H](O)C(C)=C[C@@H](C(=O)O1)[C@@]43O)O2 (stereo not given in full) | >55000
CC[C@H](C)[C@H]1O[C@]2(CC[C@@H]1C)C[C@@H]1C[C@@H](C/C=C(\C)[C@@H](O[C@@H]3C[C@@H](OC)[C@H](O[C@@H]4C[C@@H](OC)[C@H](O)[C@@H](C)O4)[C@@H](C)O3)[C@@H](C)/C=C/C=C3\COC4[C@H](O)C(C)=C[C@@H](C(=O)O1)[C@]34O)O2 (stereo not given in full) | 430
CC[C@H](C)[C@H]1O[C@]2(C=C[C@@H]1C)C[C@@H]1C[C@@H](C/C=C(\C)[C@@H](O[C@@H]3C[C@@H](OC)[C@H](O[C@@H]4C[C@@H](OC)[C@H](O)[C@@H](C)O4)[C@@H](C)O3)[C@@H](C)/C=C/C=C3\COC4[C@H](O)C(C)=C[C@@H](C(=O)O1)[C@]34O)O2 (stereo not given in full) | 335
